# Measured values reported in patent US6849648B2, “Phenylene alkyne matrix metalloproteinase inhibitors” (Warner-Lambert Company, priority 2001, dated 2005).
# Read-outs that look alike come from different tables or passages of the source.
# How the values were obtained:
# [1] = target: T1, MMP-1FL (full length interstitial collagenase) (Homo sapiens, UniProt P03956); experiment: Thiopeptolide hydrolysis assay, full length interstitial collagenase; format: biochemical; conditions: Table 3; full-length MMP01
# T1 sequence (P03956 100-469): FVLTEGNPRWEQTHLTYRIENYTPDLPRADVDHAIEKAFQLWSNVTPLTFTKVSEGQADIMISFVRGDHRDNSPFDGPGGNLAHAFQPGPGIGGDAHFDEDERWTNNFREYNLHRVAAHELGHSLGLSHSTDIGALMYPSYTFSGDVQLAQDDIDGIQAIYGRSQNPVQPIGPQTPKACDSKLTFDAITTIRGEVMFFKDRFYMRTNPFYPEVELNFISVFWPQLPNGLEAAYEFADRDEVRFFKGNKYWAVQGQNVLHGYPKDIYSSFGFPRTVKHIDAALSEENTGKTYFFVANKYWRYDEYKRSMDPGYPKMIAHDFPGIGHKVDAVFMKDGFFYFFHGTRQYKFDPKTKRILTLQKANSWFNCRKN
# Source text: (§1) The assays measure the amount by which a test compound reduces the hydrolysis of a thiopeptolide substrate caused by a matrix metalloproteinase enzyme. Such assays are described in detail by Ye et al., in Biochemistry, 1992;31(45):11231-11235, which is incorporated herein by reference.
# (§2) Thiopeptolide substrates show virtually no decomposition or hydrolysis in the absence of a matrix metalloproteinase enzyme. A typical thiopeptolide substrate commonly utilized for assays is Ac-Pro-Leu-Gly-thioester-Leu-Leu-Gly-OEt. A 100 μL assay mixture will contain 50 mM of 2-morpholinoethane sulfonic acid monohydrate (MES, pH 6.0) 10 mM CaCl2, 100 μM thiopeptolide substrate, and 1 mM 5,5′-dithio-bis-(2-nitro-benzoic acid) (DTNB). The thiopeptolide substrate concentration is varied from 10 to 800 μM to obtain Km and Kcat values. The change in absorbance at 405 nm is monitored on a Thermo Max microplate reader (molecular Devices, Menlo Park, Calif.) at room temperature (22° C.). The calculation of the amount of hydrolysis of the thiopeptolide substrate is based on E412=13600 m^−1 cm^−1 for the DTNB-derived product 3-carboxy-4-nitrothiophenoxide. Assays are carried out with and without matrix metalloproteinase inhibitor compounds, and the amount of hydrolysis is compared for a determination of inhibitory activity of the test compounds.
# (§3) Several representative compounds have been evaluated for their ability to inhibit various matrix metalloproteinase enzymes. Table 1 below presents inhibitory activity as IC50's in micromolar for representative invention compounds. In the table, MMP-1FL refers to full length interstitial collagenase; MMP-2FL refers to full length Gelatinase A; MMP-3CD refers to the catalytic domain of stromelysin; MMP-7FL refers to full length matrilysin; MMP-9FL refers to full length Gelatinase B; MMP-13CD refers to the catalytic domain of collagenase 3; and MMP-14CD refers to the catalytic domain of MMP-14. Test compounds were evaluated at various concentrations in order to determine their respective IC50 values, the micromolar concentration of compound required to cause a 50% inhibition of the hydrolytic activity of the respective enzyme.
# [2] = target: T2, MMP-2FL (full length Gelatinase A) (Homo sapiens, UniProt P08253); experiment: Thiopeptolide hydrolysis assay, full length Gelatinase A; format: biochemical; conditions: Table 3; full-length MMP02
# T2 sequence (P08253 110-660): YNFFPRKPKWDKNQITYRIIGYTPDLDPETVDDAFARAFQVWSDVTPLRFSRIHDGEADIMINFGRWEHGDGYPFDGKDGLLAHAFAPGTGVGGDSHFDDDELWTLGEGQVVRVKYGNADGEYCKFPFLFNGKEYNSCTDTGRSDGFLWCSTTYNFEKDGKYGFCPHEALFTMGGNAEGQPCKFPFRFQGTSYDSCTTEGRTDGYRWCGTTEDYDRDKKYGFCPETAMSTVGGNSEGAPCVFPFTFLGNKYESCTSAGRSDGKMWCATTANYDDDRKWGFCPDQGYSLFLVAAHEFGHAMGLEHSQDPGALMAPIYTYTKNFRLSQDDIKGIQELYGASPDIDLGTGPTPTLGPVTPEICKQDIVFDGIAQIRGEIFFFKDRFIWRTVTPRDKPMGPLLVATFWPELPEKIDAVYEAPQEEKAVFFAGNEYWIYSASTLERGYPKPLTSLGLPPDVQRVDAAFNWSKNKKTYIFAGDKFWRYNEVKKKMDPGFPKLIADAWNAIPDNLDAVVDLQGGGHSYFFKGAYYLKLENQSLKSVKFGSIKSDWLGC
# Source text: as §1, §2, §3
# [3] = target: MMP-3CD (catalytic domain of stromelysin) (Homo sapiens, UniProt P08254); experiment: Thiopeptolide hydrolysis assay, catalytic domain of stromelysin; format: biochemical; conditions: Table 3; MMP03 catalytic domain
# MMP-3CD (catalytic domain of stromelysin), sequence (P08254 100-272 limits assumed): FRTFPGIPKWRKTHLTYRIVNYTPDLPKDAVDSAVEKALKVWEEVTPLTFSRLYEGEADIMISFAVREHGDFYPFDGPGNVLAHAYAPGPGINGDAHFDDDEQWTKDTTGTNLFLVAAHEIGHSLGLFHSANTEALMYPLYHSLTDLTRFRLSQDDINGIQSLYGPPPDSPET
# Source text: as §1, §2, §3
# [4] = target: T3, MMP-7FL (full length matrilysin) (Homo sapiens, UniProt P09237); experiment: Thiopeptolide hydrolysis assay, full length matrilysin; format: biochemical; conditions: Table 3; full-length MMP07
# T3 sequence (P09237 95-267): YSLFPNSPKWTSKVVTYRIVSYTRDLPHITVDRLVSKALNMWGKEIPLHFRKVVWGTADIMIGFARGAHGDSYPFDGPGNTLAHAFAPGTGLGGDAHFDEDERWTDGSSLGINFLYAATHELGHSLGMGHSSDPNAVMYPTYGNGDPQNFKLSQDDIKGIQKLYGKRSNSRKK
# Source text: as §1, §2, §3
# [5] = target: MMP-9FL (full length Gelatinase B) (Homo sapiens, UniProt P14780); experiment: Thiopeptolide hydrolysis assay, full length Gelatinase B; format: biochemical; conditions: Table 3; full-length MMP09
# MMP-9FL (full length Gelatinase B), sequence (P14780 94-707, species assumed): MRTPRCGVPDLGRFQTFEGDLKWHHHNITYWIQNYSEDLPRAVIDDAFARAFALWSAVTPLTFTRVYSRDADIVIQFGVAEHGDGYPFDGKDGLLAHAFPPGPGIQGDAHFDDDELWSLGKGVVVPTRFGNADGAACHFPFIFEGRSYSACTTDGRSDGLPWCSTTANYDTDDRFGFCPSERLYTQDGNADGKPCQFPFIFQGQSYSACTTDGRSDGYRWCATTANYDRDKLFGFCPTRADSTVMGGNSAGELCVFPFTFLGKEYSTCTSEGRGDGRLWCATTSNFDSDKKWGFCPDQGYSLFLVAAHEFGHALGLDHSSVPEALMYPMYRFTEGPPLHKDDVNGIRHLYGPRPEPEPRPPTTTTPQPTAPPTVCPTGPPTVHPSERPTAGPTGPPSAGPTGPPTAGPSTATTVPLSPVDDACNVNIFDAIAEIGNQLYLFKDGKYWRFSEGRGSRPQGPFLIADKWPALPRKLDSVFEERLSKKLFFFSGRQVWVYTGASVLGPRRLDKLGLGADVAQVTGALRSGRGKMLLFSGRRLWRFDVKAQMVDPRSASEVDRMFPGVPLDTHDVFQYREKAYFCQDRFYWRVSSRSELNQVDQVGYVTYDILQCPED
# Source text: as §1, §2, §3
# [6] = target: MMP-13CD (catalytic domain of collagenase 3) (Homo sapiens, UniProt P45452); experiment: Thiopeptolide hydrolysis assay, catalytic domain of collagenase 3; format: biochemical
# Source text: as §1, §2, §3
# [7] = target: MMP-14CD (catalytic domain of MMP-14) (Homo sapiens, UniProt P50281); experiment: Thiopeptolide hydrolysis assay, catalytic domain of MMP-14; format: biochemical; conditions: Table 3; MMP-14 catalytic domain; read-out: IC50 (μM) MMP14 (CD)
# Source text: as §1, §2, §3
# [8] = Table 1, thiopeptolide substrate, read-out: IC50 (μM) Versus MMPs, MMP13 (CD)
# [9] = Table 3, MMP-13 catalytic domain, read-out: IC50 (μM) MMP13 (CD)
# [10] = Table 2, thiopeptolide substrate, read-out: MMP-13CD (IC50)
SMILES,IC50 [1],IC50 [2],IC50 [3],IC50 [4],IC50 [5],"IC50 [6, 8]",IC50 [7],melting point,"IC50 [6, 9]","IC50 [6, 10]"
"CN1C(=O)N(Cc2ccccc2)S(=O)(=O)c2cc(C#CCc3ccccc3)ccc21 [Example 1, 2-Benzyl-4-methyl-1,1-dioxo-7-(3-phenyl-prop-1ynyl)-1,4-dihydro-2H-1l^6-benzo[1,2,4]thiadiazin-3-one]",> 100 µM,> 30 µM,> 30 µM,> 30 µM,> 100 µM,2.2 µM,> 100 µM,125 to 127 °C,–,–
"O=C1Nc2ccc(C#CCc3ccccc3)cc2S(=O)(=O)N1Cc1ccccc1 [Example 3, 2-Benzyl-1,1-dioxo-7-(3-phenyl-prop-1-ynyl)-1,4-dihydro-2H-1l^6-benzo[1,2,4]thiadiazin-3-one]",> 30 µM,> 100 µM,> 30 µM,> 30 µM,> 30 µM,–,> 30 µM,–,0.12 µM,–
"N#Cc1ccc(CNC(=O)c2cccc(C#CCn3cncn3)c2)cc1 [Example 5, N-(4-Cyano-benzyl)-3-(3-[1,2,4]-triazol-1-yl-prop-1-ynyl)-benzamide]",–,–,–,–,–,–,–,–,–,66 µM
"CN1C(=O)N(Cc2ccc(C(=O)O)cc2)S(=O)(=O)c2cc(C#CCc3ccccc3)ccc21 [Example 2, 4-[4-Methyl-1,1,3-trioxo-7-(3-phenyl-prop-1-ynyl)-3,4-dihydro-1H-1l^6-benzo[1,2,4]thiadiazin-2-ylmethyl]-benzoic acid]",> 30 µM,> 30 µM,> 10 µM,> 30 µM,> 30 µM,0.0042 µM,> 30 µM,208 to 209 °C,–,–
"N#Cc1ccc(CNC(=O)c2cccc(C#CCn3ccnn3)c2)cc1 [Example 4, N-(4-Cyano-benzyl)-3-(3-[1,2,3]-triazol-1-yl-prop-1-ynyl)-benzamide]",–,–,–,–,–,–,–,–,–,100 µM

# The next lines start with the values.
IC50 [1],IC50 [2],IC50 [3],IC50 [4],IC50 [5],"IC50 [6, 8]",IC50 [7],melting point,"IC50 [6, 9]","IC50 [6, 10]",SMILES
> 30 µM,> 30 µM,> 30 µM,> 10 µM,> 30 µM,–,> 30 µM,–,0.185 µM,–,"COc1ccc(CN2C(=O)Nc3ccc(C#CCc4ccccc4)cc3S2(=O)=O)cc1 [Example 18, 2-(4-Methoxy-benzyl)-1,1-dioxo-7-(3-phenyl-prop-1-ynyl)-1,4-dihydro-2H, 1λ^6-benzo[1,2,4]thiadiazin-3-one]"
–,–,–,–,–,–,–,–,–,0.029 µM,O=C(O)c1ccc(CNC(=O)c2cccc(C#CCc3ccccc3)c2)cc1 [Example 6]
> 30 µM,> 30 µM,12 µM,> 30 µM,> 30 µM,–,> 30 µM,–,0.0315 µM,–,"CN1c2ccc(C#CCc3ccccc3)cc2C(=O)N(Cc2ccc(C(=O)O)cc2)S1(=O)=O [Example 16, 4-[1-methyl-2,2,4-trioxo-6-(3-phenylprop-1-ynyl)-1,4-dihydro-2H-2λ^6-benzo[1,2,6]-thiadiazin-3-ylmethyl]benzoic acid]"
> 30 µM,> 30 µM,> 10 µM,24 µM,> 100 µM,–,> 30 µM,–,0.0104 µM,–,"CN1c2ccc(C#CCc3ccccc3)cc2C(=O)N(Cc2ccc(C(=O)O)cc2)[S+]1[O-] (stereo not shown) [Example 15, 4-[1-Methyl-2,4-dioxo-6-(3-phenyl-prop-1-ynyl)-1,4-dihydro-2H-2λ^4-benzo[1,2,6]thiadiazin-3-ylmethyl]benzoic acid]"
–,–,–,–,–,–,–,–,0.079 µM,–,"O=C(O)c1ccc(CN2C(=O)Nc3ccc(C#CCCc4ccccc4)cc3S2(=O)=O)cc1 [Example 19, 4-[1,1,3-Trioxo-7-(4-phenyl-but-1-ynyl)-3,4-dihydro-1H-1λ^6-benzo[1,2,4]thiadiazin-2-ylmethyl]-benzoic acid]"
> 30 µM,> 100 µM,5.6 µM,16 µM,> 100 µM,–,> 30 µM,–,0.00517 µM,–,"O=C(O)c1ccc(CN2C(=O)Nc3ccc(C#CCc4ccccc4)cc3S2(=O)=O)cc1 [Example 17, 4-[1,1,3-Trioxo-7-(3-phenyl-prop-1-ynyl)-3,4-dihydro-1H-1λ^6-benzo[1,2,4]thiadiazin-2-ylmethyl]-benzoic acid]"
